Results from PubChem BioAssay (NCI).
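These data come from cells grown in 96-well plates and exposed to compound for 48 hours at five concentrations. The concentration for 50% growth inhibition is given as GI50. At the TGI there is no net growth.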 *1 amine or outer side, *2 acyl side, *3 side chain or, on linkers, in order; H or OH if unused. Where a SMILES comes first, the peptide text is derived from it. [ ]: non-standard residue; d: D form. ξ: configuration not given here. X21 = CC[C@@H](C)C(N[*:1])C(=O)[*:2]; ξR = N=C(N)NCCCC(N)C(=O)O; ξI = CCC(C)C(N)C(=O)O; ξL = CC(C)CC(N)C(=O)O; ξK = NCCCCC(N)C(=O)O; ξV = CC(C)C(N)C(=O)O; ξA = CC(N)C(=O)O

Assays:
Test in all cases: NCI tumour cell line growth inhibition, 48 h
A498 renal = system: A498 renal
BT-549 breast = system: BT-549 breast
CCRF-CEM leukemia = system: CCRF-CEM leukemia
EKVX NSCLC = system: EKVX NSCLC
HCC-2998 colon = system: HCC-2998 colon
HL-60(TB) leukemia = system: HL-60(TB) leukemia
HS 578T breast = system: HS 578T breast
MOLT-4 leukemia = system: MOLT-4 leukemia
NCI/ADR-RES ovarian = system: NCI/ADR-RES ovarian
UO-31 renal = system: UO-31 renal

Compound | GI50 (A498 renal) [µM] | TGI (A498 renal) [µM] | GI50 (BT-549 breast) [µM] | TGI (BT-549 breast) [µM] | GI50 (CCRF-CEM leukemia) [µM] | TGI (CCRF-CEM leukemia) [µM] | GI50 (EKVX NSCLC) [µM] | TGI (EKVX NSCLC) [µM] | GI50 (HCC-2998 colon) [µM] | TGI (HCC-2998 colon) [µM] | GI50 (HL-60(TB) leukemia) [µM] | TGI (HL-60(TB) leukemia) [µM] | GI50 (HS 578T breast) [µM] | TGI (HS 578T breast) [µM] | GI50 (MOLT-4 leukemia) [µM] | TGI (MOLT-4 leukemia) [µM] | GI50 (NCI/ADR-RES ovarian) [µM] | TGI (NCI/ADR-RES ovarian) [µM] | GI50 (UO-31 renal) [µM] | TGI (UO-31 renal) [µM]
COc1ccc2c(c1)/C(=C/c1cc(OC)c(OC)c(OC)c1)C(=O)N2C | 2.5 | 5.92 | 2.84 | > 30.4 | 2.21 | 7.04 | 5.1 | > 100 | 9.39 | > 56.1 | 1.46 | 5.28 | 1.43 | 4.61 | 1.89 | 7.56 | 3.37 | > 39.7 | 3.91 | > 55.7
NC1CCC(N[C@@H]2C[C@H]2c2ccccc2)CC1 (stereo partly specified) | 21.4 | > 100 | > 100 | > 100 | 82.8 | > 100 | > 100 | > 100 | > 100 | > 100 | > 100 | > 100 | > 100 | > 100 | 60 | > 100 | > 100 | > 100 | 67.4 | > 100
CCOC(=O)c1cc(C(=O)c2cc(OC)c(OC)c(OC)c2)n2ccccc12 | 0.0269 | 9.55 | 0.0597 | > 100 | 0.106 | > 100 | 0.342 | > 100 | 0.37 | > 100 | 0.0586 |  | 0.123 | 46.6 | 0.182 | > 100 | 0.0523 | 2.75 |  | > 100
O=C(Nc1ccccc1)Nc1cccc(Oc2nnc(Cl)c3ccccc23)c1 | 3.45 | 13.1 | 3.06 | 10.8 | 4.44 | > 25 | 2.31 | 12.1 | 4.2 | 12.2 | 2.7 | > 25 | 2.12 | 10.4 | 2.6 | 11.4 | 2.63 | 6.39 | 3.98 | 19.6
C=C1C(=O)O[C@H]2[C@H]1CC/C(COC(=O)c1ccccc1)=C\CC[C@@]1(C)O[C@@H]21 | 16.8 | 30.8 | 1.23 | 2.94 | 0.281 | 1.3 | 1.85 | 4.46 | 2.35 | 4.95 | 0.981 | 3.95 | 2.56 | 14.8 | 2.14 | 7.57 | 2.67 | 9.05 | 1.2 | 2.49
Fc1ccc2[nH]cc(SSc3c[nH]c4ccc(F)cc34)c2c1 | 3.61 | 14.4 | 4.94 | 24.4 | 2.54 | 8.56 | 3.03 | 15.7 | 6.34 | 23.3 | 1.83 | 6.57 | 4.22 | 31.1 | 2.71 | 33.4 | 7.1 | > 100 | 4.83 | 52.3
CC(C)c1ccc(NC(=S)NC(=O)c2ccccc2)cc1 |  | 74.1 |  | 60.6 |  | 49.6 |  | > 100 |  | 39.4 |  | 32.3 |  | > 100 |  | 52.3 |  | > 100 |  | 32.7
COc1ccc2c(c1)/C(=N/OC(C)=O)c1c-2c(=O)[nH]c2ccccc12 | 7.45 | 32.4 | 7.99 | 24.1 | 4.09 | 23.6 | 6.38 | 21.6 | 3.29 | 13.5 | 1.83 | 4.88 | 8.88 | 31.4 | 4.28 | 24.6 | 2.83 | 17.9 | 11.1 | 25.2
CC(=O)OC1Oc2ccccc2-c2oc(=O)c(-c3cc4ccccc4oc3=O)cc21 (stereo unspecified) | 18.8 | 43.9 | 18.6 | 40.1 | 23.2 | 54.2 | 26.4 | 74.6 | 57.7 | > 100 | 39 | > 100 | 30 | 89.2 | 25.4 | 81.8 | 22.5 | 51.3 | 18 | 35.4
C/C(=N\N=C(N)N)C(CN(C)C)C(c1ccccc1)c1c(O)c2ccccc2oc1=O (stereo unspecified) |  | > 100 |  | > 100 |  | > 100 |  | > 100 |  | > 100 |  | > 100 |  | > 100 |  | > 100 |  | > 100 |  | > 100
C=C1C(=O)O[C@H]2[C@H]1CC/C(Cn1cc(-c3cc(C)c(C)cc3C)nn1)=C\CC[C@@]1(C)O[C@@H]21 | 1.04 | 4 | 0.753 | 2.66 | 0.458 | 2.65 | 1.22 | 2.53 | 1.72 | 3.33 | 0.643 | 3.69 | 1.94 | 6.2 | 2.38 | 7.34 | 2.51 | 12.9 | 0.528 | 1.89
Cc1c(N=Cc2ccc(N(CCC#N)CCC#N)cc2)c(=O)n(-c2ccccc2)n1C |  | > 100 |  | > 100 |  | > 100 |  | > 100 |  | > 100 |  | > 100 |  | > 100 |  | > 100 |  | > 100 |  | > 100
COc1cc(OC)c(C(=O)/C=C/c2cccc(OC(C)=O)c2)cc1CC=C(C)C | 16.9 | > 50 | 6.28 | 36.6 | 7 | 31 | 30.2 | > 50 | 8.87 | 16.2 | 13.3 | > 50 | > 50 | > 50 | 7.64 | 43.6 | 7.62 | 31.3 | 15.9 | > 50
N#C/C(=C\c1ccc(Br)cc1)n1nnc2ccccc21 | 1.71 | 4.37 | 0.566 | 4.85 | 0.357 | 16.6 | 1.41 | 7.48 | 1.51 | 3.34 | 0.287 | 2.04 | 2.63 | 14 | 1.48 | 11.4 | 0.323 | 11 | 0.449 | 1.63
COc1cc(/C=C2\C(=O)Nc3cccc(Cl)c32)cc(OC)c1OC | > 100 | > 100 | > 100 | > 100 | 0.0529 | 0.527 | > 100 | > 100 | > 100 | > 100 | 11 | > 100 | > 100 | > 100 | 0.142 | 1.34 | > 100 | > 100 | > 100 | > 100
COc1ccc2c(c1)C1(C(=O)N2)C(C#N)=C(c2ccccc2)Nc2c1c(-c1ccccc1)nn2-c1ccccc1 (stereo unspecified) | 1.61 | 4.35 | 2.28 | 8.03 | 2.9 | 10.4 | 4.44 | 22.2 | 3.51 | 12.5 | 3.68 | 15.4 | 4.1 | 19.3 | 3.37 | 11 | 31.9 | > 100 | 15.8 | 30.1
COc1cc2c(cc1OCCCCOc1ccc(-c3nc4ccccc4s3)cc1)N=C[C@@H]1CCCN1C2=O | 1.99 | 4.34 | 0.93 | 2.38 | 0.456 | 2.38 | 2.56 | 6.39 | 0.82 | 2.28 | 0.384 | 16.5 | 0.891 | 4.43 | 0.924 | 3.86 | 1.49 | 5.17 | 0.581 | 2.43
CN(C)CCCn1c2nc(=O)[nH]c(=O)c-2nc2cc(Cl)c(Cl)cc21 | 16.1 | 30.4 | 19.5 | 34.7 | 3.81 | 18.7 | 13.8 | 28.5 | 12.5 | 27.9 | 3.83 | 9.97 | 30.9 | > 100 | 4.35 | 22.8 | 7.9 | > 100 | 2.73 | 10.9
N#Cc1ccc2c(c1)C(=O)c1c-2n(CCCN)c(=O)c2cc([N+](=O)[O-])ccc12 | 1.09 | 2.44 | 0.847 | 2.29 | 0.038 | 0.442 | 0.537 | 1.93 | 0.101 | 0.447 | 1.37 | 3.56 | 1.41 | 3.41 | 0.0492 |  | 0.359 | 3.19 | 0.0605 | 1.44
C[C@H](N)C(=O)N1C[C@H](CCCB(O)O)[C@](N)(C(=O)O)C1 | > 100 | > 100 | > 100 | > 100 | > 100 | > 100 | > 100 | > 100 | > 100 | > 100 | > 100 | > 100 | > 100 | > 100 | > 100 | > 100 | > 100 | > 100 | > 100 | > 100
O=C(O)C1CCCCC1c1c2ccc(=O)cc-2oc2cc(O)ccc12 (stereo unspecified) |  | > 100 |  | > 100 |  | > 100 |  | > 100 |  | > 100 |  | > 100 |  | 96.7 |  | > 100 |  | > 100 |  | > 100
CCC(C)C1NC(=O)C(CC(C)C)NC(=O)C(C)NC(=O)C(C(C)C)NC(=O)C(CCCCN)NC(=O)C(CC(C)C)NC(=O)C(C(C)C)NC(=O)[C@H](C)NC(=O)C(C(C)CC)NC(=O)C(CCCN=C(N)N)NC(=O)C(CCCCN)NC(=O)C(CCCN=C(N)N)NC(=O)C(CCCCN)NC(=O)C([C@H](C)CC)NC(=O)C(CCCCN)NC1=O (stereo partly specified) (cyclo(A[ξV][ξL][ξK][ξV][ξA][ξL][ξI][ξK][X21][ξK][ξR][ξK][ξR][ξI])) | 1.15 | 2.82 | 1.56 | 3.42 | 1.43 | 5.07 | 0.61 | 2.9 | 1.83 | 4.22 | 1.77 | 4.44 | 1.72 | 4.63 | 0.752 | 2.82 | 1.06 | 3.84 | 1.37 | 2.67
COc1ccc(/C=C/NC=O)cc1 |  | > 100 |  | > 100 |  | > 100 |  | > 100 |  | > 100 |  | > 100 |  | > 100 |  | > 100 |  | > 100 |  | > 100
O=C(COc1cccc(/C=C2\CSc3ccccc3C2=O)c1)c1ccc(Cl)cc1 | 3.95 | 8.69 | 1.69 | 3.39 | 0.325 |  | 7.45 | 17.5 | 1.47 | 2.8 | 3.57 | > 21 | 2.74 | 17.2 | 1.07 | 3.44 | 2.66 | 7.33 | 1.63 | 3.32
